Experimental data as given in ChEMBL document CHEMBL1201862, “PubChem BioAssay data set” (2004).
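Step 1: Grow cells in 96-well plates. Step 2: Expose to compound for 48 hours at 5 concentrations. Step 3: Interpolate endpoints linearly; if unreached, use highest concentration. At the GI50, growth is halved.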 Active and inactive are the calls of the source. No stated cut-off is given here; in the data, active = GI50 up to about 1.1 µM and inactive = higher.

Tests used:
Assay in all cases: NCI anticancer screen, dose series, 48 h
HCC 2998 = test system: HCC 2998
OVCAR-5 = test system: OVCAR-5
IGROV-1 = test system: IGROV-1
HL-60 = test system: HL-60
786-0 = test system: 786-0
RPMI-8226 = test system: RPMI-8226
K562 = test system: K562
BT-549 = test system: BT-549
MCF7 = test system: MCF7
OVCAR-4 = test system: OVCAR-4
UO-31 = test system: UO-31
SK-MEL-2 = test system: SK-MEL-2
CAKI-1 = test system: CAKI-1
COLO 205 = test system: COLO 205
SK-MEL-28 = test system: SK-MEL-28
RXF 393 = test system: RXF 393
A498 = test system: A498
Hs-578T = test system: Hs-578T
MOLT-4 = test system: MOLT-4
SF-539 = test system: SF-539

CC(C)(C)OC(=O)NCCCCC1NC(=O)[C@@H]2Cc3c([nH]c4ccccc34)C(c3ccccc3)N2C1=O (stereo partly drawn)
GI50 (HCC 2998): 12.8 µM (inactive) | GI50 (OVCAR-5): 53.8 µM (inactive) | GI50 (IGROV-1): 40.3 µM (inactive) | GI50 (HL-60): 21.5 µM (inactive) | GI50 (786-0): 25.1 µM (inactive) | GI50 (RPMI-8226): 27.7 µM (inactive) | GI50 (K562): 33.4 µM (inactive) | GI50 (BT-549): 21.9 µM (inactive) | GI50 (MCF7): 35.2 µM (inactive) | GI50 (OVCAR-4): 48.5 µM (inactive) | GI50 (UO-31): 10.7 µM (inactive) | GI50 (SK-MEL-2): 24.7 µM (inactive) | GI50 (CAKI-1): 50.5 µM (inactive) | GI50 (COLO 205): 21.1 µM (inactive) | GI50 (SK-MEL-28): 64.6 µM (inactive) | GI50 (RXF 393): 14.7 µM (inactive) | GI50 (A498): 72.6 µM (inactive) | GI50 (Hs-578T): 12.1 µM (inactive) | GI50 (MOLT-4): 15.6 µM (inactive)

CC[N+]1(C)CCC(O)(/C=C/c2ccc(Cl)cc2)C(C(=O)/C=C/c2ccc(Cl)cc2)C1 (stereo not drawn)
GI50 (HCC 2998): 17.5 µM (inactive) | GI50 (OVCAR-5): 17.3 µM (inactive) | GI50 (IGROV-1): 4.7 µM (inactive) | GI50 (HL-60): 1.6 µM (inactive) | GI50 (786-0): 3.01 µM (inactive) | GI50 (RPMI-8226): 0.327 µM (active) | GI50 (K562): 2.37 µM (inactive) | GI50 (BT-549): 13.8 µM (inactive) | GI50 (MCF7): 3.92 µM (inactive) | GI50 (OVCAR-4): 28.4 µM (inactive) | GI50 (UO-31): 6.58 µM (inactive) | GI50 (SK-MEL-2): 15.8 µM (inactive) | GI50 (CAKI-1): 1.9 µM (inactive) | GI50 (COLO 205): 3.55 µM (inactive) | GI50 (SK-MEL-28): 6.17 µM (inactive) | GI50 (RXF 393): 7.66 µM (inactive) | GI50 (A498): 16.4 µM (inactive) | GI50 (Hs-578T): 3.08 µM (inactive) | GI50 (MOLT-4): 2.5 µM (inactive) | GI50 (SF-539): 2.35 µM (inactive)

O=C1/C(=C/c2ccccc2S)N=C(c2ccccc2)N1c1nc2ccc(Sc3ccccc3)cc2[nH]1
GI50 (HCC 2998): 22.7 µM (inactive) | GI50 (OVCAR-5): 32.4 µM (inactive) | GI50 (IGROV-1): 49.4 µM (inactive) | GI50 (HL-60): 19.8 µM (inactive) | GI50 (786-0): 28.1 µM (inactive) | GI50 (RPMI-8226): 23.9 µM (inactive) | GI50 (K562): 24.1 µM (inactive) | GI50 (BT-549): 22.1 µM (inactive) | GI50 (MCF7): 27 µM (inactive) | GI50 (OVCAR-4): 35.2 µM (inactive) | GI50 (UO-31): 36.3 µM (inactive) | GI50 (SK-MEL-2): 17.8 µM (inactive) | GI50 (CAKI-1): 34.1 µM (inactive) | GI50 (COLO 205): 20.4 µM (inactive) | GI50 (SK-MEL-28): 36.5 µM (inactive) | GI50 (RXF 393): 28.2 µM (inactive) | GI50 (A498): 26.2 µM (inactive) | GI50 (Hs-578T): 28.2 µM (inactive) | GI50 (MOLT-4): 35.4 µM (inactive)

COC(=O)C1=C(OC(=O)c2ccccc2)C(C(=O)OC)[C@@]2(O)[C@@H](C(=O)OC)[C@H](C)C[C@@H]1[C@@H]2C(=O)OC (stereo partly drawn)
GI50 (HCC 2998): 25 µM (inactive) | GI50 (OVCAR-5): 47.2 µM (inactive) | GI50 (IGROV-1): 33.8 µM (inactive) | GI50 (HL-60): 20.1 µM (inactive) | GI50 (786-0): 38.1 µM (inactive) | GI50 (RPMI-8226): 19 µM (inactive) | GI50 (BT-549): 23.7 µM (inactive) | GI50 (MCF7): 29 µM (inactive) | GI50 (OVCAR-4): 31.6 µM (inactive) | GI50 (UO-31): 29.5 µM (inactive) | GI50 (SK-MEL-2): 58.2 µM (inactive) | GI50 (CAKI-1): 42.2 µM (inactive) | GI50 (COLO 205): 17.6 µM (inactive) | GI50 (SK-MEL-28): 27.2 µM (inactive) | GI50 (RXF 393): 14.4 µM (inactive) | GI50 (A498): 26.4 µM (inactive) | GI50 (Hs-578T): 34.5 µM (inactive) | GI50 (MOLT-4): 46.1 µM (inactive) | GI50 (SF-539): 14.5 µM (inactive)

O=C(/C=C/c1ccc2ccccc2c1)NCc1ccc(C(=O)NCc2ccccc2)cc1
GI50 (HCC 2998): > 37.2 µM (inactive) | GI50 (OVCAR-5): > 100 µM (inactive) | GI50 (IGROV-1): > 70 µM (inactive) | GI50 (HL-60): 14.7 µM (inactive) | GI50 (786-0): 67.9 µM (inactive) | GI50 (RPMI-8226): > 93.8 µM (inactive) | GI50 (K562): > 31.6 µM (inactive) | GI50 (BT-549): 32.9 µM (inactive) | GI50 (MCF7): > 83.6 µM (inactive) | GI50 (OVCAR-4): 8.53 µM (inactive) | GI50 (UO-31): > 53.8 µM (inactive) | GI50 (SK-MEL-2): > 100 µM (inactive) | GI50 (CAKI-1): 28.3 µM (inactive) | GI50 (COLO 205): > 100 µM (inactive) | GI50 (SK-MEL-28): > 100 µM (inactive) | GI50 (RXF 393): 41.8 µM (inactive) | GI50 (A498): > 83.8 µM (inactive) | GI50 (Hs-578T): 37.9 µM (inactive) | GI50 (MOLT-4): > 66.7 µM (inactive) | GI50 (SF-539): 27.5 µM (inactive)

C=CCCCC1(C)CCCCNC1=O (stereo not drawn)
GI50 (HCC 2998): > 10 µM (inactive) | GI50 (OVCAR-5): > 10 µM (inactive) | GI50 (IGROV-1): > 10 µM (inactive) | GI50 (HL-60): > 10 µM (inactive) | GI50 (786-0): > 10 µM (inactive) | GI50 (RPMI-8226): > 10 µM (inactive) | GI50 (K562): > 10 µM (inactive) | GI50 (BT-549): > 10 µM (inactive) | GI50 (MCF7): > 10 µM (inactive) | GI50 (OVCAR-4): > 10 µM (inactive) | GI50 (UO-31): > 10 µM (inactive) | GI50 (SK-MEL-2): > 10 µM (inactive) | GI50 (CAKI-1): > 10 µM (inactive) | GI50 (COLO 205): > 10 µM (inactive) | GI50 (SK-MEL-28): > 10 µM (inactive) | GI50 (RXF 393): > 10 µM (inactive) | GI50 (A498): > 10 µM (inactive) | GI50 (Hs-578T): > 10 µM (inactive) | GI50 (MOLT-4): > 10 µM (inactive) | GI50 (SF-539): > 10 µM (inactive)

O=c1oc2ncccc2n1Cc1ccc([N+](=O)[O-])cc1
GI50 (OVCAR-5): > 100 µM (inactive) | GI50 (IGROV-1): > 100 µM (inactive) | GI50 (HL-60): > 100 µM (inactive) | GI50 (786-0): > 100 µM (inactive) | GI50 (RPMI-8226): > 100 µM (inactive) | GI50 (K562): > 100 µM (inactive) | GI50 (BT-549): 38.1 µM (inactive) | GI50 (MCF7): > 100 µM (inactive) | GI50 (OVCAR-4): > 100 µM (inactive) | GI50 (UO-31): 26.5 µM (inactive) | GI50 (SK-MEL-2): > 100 µM (inactive) | GI50 (CAKI-1): > 100 µM (inactive) | GI50 (COLO 205): > 100 µM (inactive) | GI50 (SK-MEL-28): > 100 µM (inactive) | GI50 (RXF 393): > 100 µM (inactive) | GI50 (A498): > 100 µM (inactive) | GI50 (Hs-578T): > 100 µM (inactive) | GI50 (MOLT-4): > 100 µM (inactive) | GI50 (SF-539): > 100 µM (inactive)

Oc1nc(-c2cccc(F)c2)nc2ccccc12
GI50 (HCC 2998): 35.1 µM (inactive) | GI50 (OVCAR-5): > 100 µM (inactive) | GI50 (IGROV-1): 57.1 µM (inactive) | GI50 (HL-60): > 100 µM (inactive) | GI50 (786-0): 38.6 µM (inactive) | GI50 (K562): 0.461 µM (active) | GI50 (BT-549): > 46.9 µM (inactive) | GI50 (MCF7): 87.1 µM (inactive) | GI50 (OVCAR-4): 25 µM (inactive) | GI50 (UO-31): 30.8 µM (inactive) | GI50 (SK-MEL-2): 41 µM (inactive) | GI50 (CAKI-1): > 100 µM (inactive) | GI50 (COLO 205): > 100 µM (inactive) | GI50 (SK-MEL-28): > 76.7 µM (inactive) | GI50 (RXF 393): 29.9 µM (inactive) | GI50 (A498): 30.3 µM (inactive) | GI50 (Hs-578T): 15.7 µM (inactive) | GI50 (MOLT-4): > 100 µM (inactive)

COc1cc(/C=C2/C(=O)N(C(=O)c3ccccc3O)N=C2C)cc(OC)c1OC
GI50 (HCC 2998): 11.6 µM (inactive) | GI50 (OVCAR-5): 11.7 µM (inactive) | GI50 (IGROV-1): 0.69 µM (active) | GI50 (HL-60): 2.9 µM (inactive) | GI50 (786-0): 2.25 µM (inactive) | GI50 (RPMI-8226): > 22.2 µM (inactive) | GI50 (K562): 0.393 µM (active) | GI50 (BT-549): 0.741 µM (active) | GI50 (MCF7): 0.753 µM (active) | GI50 (OVCAR-4): 2.73 µM (inactive) | GI50 (UO-31): 0.558 µM (active) | GI50 (SK-MEL-2): 1.44 µM (inactive) | GI50 (COLO 205): 34.4 µM (inactive) | GI50 (SK-MEL-28): 53.7 µM (inactive) | GI50 (RXF 393): 0.192 µM (active) | GI50 (A498): 0.473 µM (active) | GI50 (Hs-578T): 0.822 µM (active) | GI50 (MOLT-4): 0.887 µM (active) | GI50 (SF-539): 0.839 µM (active)

NC(=O)C[C@H](NC(=O)C1(NC(=O)[C@H](Cc2ccc(CP(=O)(O)O)cc2)NC(=O)C(=O)O)CCCCC1)C(=O)NCCCc1cccc2ccccc12
GI50 (HCC 2998): > 10 µM (inactive) | GI50 (OVCAR-5): > 10 µM (inactive) | GI50 (IGROV-1): > 10 µM (inactive) | GI50 (HL-60): > 10 µM (inactive) | GI50 (786-0): > 10 µM (inactive) | GI50 (RPMI-8226): > 10 µM (inactive) | GI50 (K562): > 10 µM (inactive) | GI50 (BT-549): > 10 µM (inactive) | GI50 (MCF7): > 10 µM (inactive) | GI50 (OVCAR-4): > 10 µM (inactive) | GI50 (UO-31): > 10 µM (inactive) | GI50 (SK-MEL-2): > 10 µM (inactive) | GI50 (CAKI-1): > 10 µM (inactive) | GI50 (COLO 205): > 10 µM (inactive) | GI50 (SK-MEL-28): > 10 µM (inactive) | GI50 (RXF 393): > 10 µM (inactive) | GI50 (A498): > 10 µM (inactive) | GI50 (Hs-578T): > 10 µM (inactive) | GI50 (MOLT-4): > 10 µM (inactive) | GI50 (SF-539): > 10 µM (inactive)
